From patent publication US8586755B2, “Substituted nicotinamides as KCNQ2/3 modulators” (Grünenthal GmbH, priority 2009, dated 2013)

Columns and labels:
Sprague-Dawley rats = test: Low-intensity tail flick in the rat; format: in vivo; details: for inhibition in vivo at 10 mg/kg / inhibition in vivo at 21.5 mg/kg / inhibition in vivo at 4.64 mg/kg / ED50: po; for inhibition in vivo at 10 mg/kg / inhibition in vivo at 21.5 mg/kg / inhibition in vivo at 4.64 mg/kg: read-out: Low-intensity tail flick rat p.o. % effect (dose [mg/kg])
Description: Low-Intensity Tail Flick in the Rat
The antinociceptive effectiveness of the test substance towards an acute, noxious thermal stimulus was studied in the focal ray (tail flick) test in the rat according to the method of D'Amour and Smith (J. Pharm. Exp. Ther. 72, 74 79 (1941)). Male Sprague-Dawley rats (breeder: Janvier, Le Genest St. Isle, France) weighing from 200 to 250 g were used for this purpose. The animals were accommodated individually in special test compartments and the base of the tail was exposed to the focused ray of an analgesia meter (model 2011, Rhema Labortechnik, Hofheim, Germany). 10 animals were used per group. Before a substance according to the invention was administered, the withdrawal latency (time from switching on of the focal ray to the sudden withdrawal of the tail) was determined twice at an interval of five minutes and the mean value was defined as the control latency time. The intensity of the focal ray was chosen so that the control latency time was 7 to 9 seconds. Measurement of the withdrawal latency was then repeated 10, 20, 30 and 60 minutes after peroral administration of substance. The antinociceptive action of the test substance was determined as the increase in the withdrawal latency time according to the following formula: MPE[%]=[(T1−T0)/(T2−T0)]×100 where: T0=control latency time before administration of substance, T1=latency time after administration of substance, T2=maximum exposure time to the focal ray (30 seconds), MPE=maximum possible effect.
Variance analysis (repeated measures ANOVA) was used to test for statistically significant differences between the substance group and the vehicle group. The level of significance was set at ≦0.05.

KCNQ2/3 channels = biological target: T1, KCNQ2/3 channels (Homo sapiens, UniProt O43525+O43526); test: Fluorescence assay using a voltage sensitive dye (fluorimetry); format: cell-based; details: CHO-K1 cells expressing KCNQ2/3 channels; for EC50: agonistic activity; for Fluorimetry % efficacy (retigabine 50 μM = 100%) / Emax: retigabine 50 μM = 100%; for Emax: read-out: Fluorimetry % efficacy (retigabine 50 μM = 100%)
T1 construct: expressed in transfected cells
How it was run: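 Agonist EC50s come from the F2 vs F1 fluorescence comparison, F2 taken at the peak after KCl depolarisation (92 mM final) and F1 after 30 min compound exposure at room temperature. Assay uses KCNQ2/3-expressing CHO-K1 cells stained 45 min with a red voltage-sensitive dye in pH 7.4 ES buffer.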

Row | Structure (SMILES) | EC50 (KCNQ2/3 channels) [nM] | Emax (KCNQ2/3 channels) [%] | inhibition in vivo at 10 mg/kg (Sprague-Dawley rats; MPE) [%] | other results
1 | O=C(NCC1CC2CCC1C2)c1cccnc1SCCCc1ccc(C(F)(F)F)c(F)c1 (centres unmarked) [compound 53, N-(5-Bicyclo[2.2.1]heptanyl-methyl)-2-[3-[3-fluoro-4-(trifluoromethyl)-phenyl]-propylsulfanyl]-pyridine-3-carboxylic acid amide] | 302 | 220 | 0 | –
2 | O=C(NCc1ccc(F)cc1)c1cccnc1SCCCc1ccc(F)cc1 [compound 65, N-[(4-Fluorophenyl)-methyl]-2-[3-(4-fluorophenyl)-propylsulfanyl]-pyridine-3-carboxylic acid amide] | 40 | 97 | 49 | –
3 | O=C(NCC1CCCCC1)c1cccnc1SCCCc1ccc(F)cc1 [compound 40, N-(Cyclohexyl-methyl)-2-[3-(4-fluorophenyl)-propylsulfanyl]-pyridine-3-carboxylic acid amide] | 129 | 144 | – | inhibition in vivo at 21.5 mg/kg (Sprague-Dawley rats; dose 21.5 mg/kg, MPE): 26%
4 | O=C(NCC1CC2CCC1C2)c1cccnc1SCCCc1cccc(C(F)(F)F)c1 (centres unmarked) [compound 27, N-(5-Bicyclo[2.2.1]heptanyl-methyl)-2-[3-[3-(trifluoromethyl)phenyl]-propylsulfanyl]-pyridine-3-carboxylic acid amide] | 85 | 210 | 18 | –
5 | O=C(NCC1C2CCC1CC2)c1cccnc1SCCC(F)(F)c1ccc(F)cc1 (centres unmarked) [compound 164, N-(7-Bicyclo[2.2.1]heptanyl-methyl)-2-[[3,3-difluoro-3-(4-fluorophenyl)-propyl]sulfanyl]-pyridine-3-carboxylic acid amide] | 32 | 287 | – | inhibition in vivo at 4.64 mg/kg (Sprague-Dawley rats; MPE): 20%
6 | CC(CCc1cccc(C(F)(F)F)c1)Sc1ncccc1C(=O)NCc1cccs1 (centres unmarked) [compound 107, 2-[[1-Methyl-3-[3-(trifluoromethyl)phenyl]-propyl]sulfanyl]-N-(thiophen-2-yl-methyl)-pyridine-3-carboxylic acid amide] | 57 | 119 | – | inhibition in vivo at 21.5 mg/kg (Sprague-Dawley rats; dose 21.5 mg/kg, MPE): 20%
7 | O=C(NCC1CCCCO1)c1cccnc1SCCC(F)(F)c1ccc(F)cc1 (centres unmarked) [compound 180, 2-[[3,3-Difluoro-3-(4-fluorophenyl)-propyl]sulfanyl]-N-(tetrahydro-pyran-2-yl-methyl)-pyridine-3-carboxylic acid amide] | 47 | 224 | 64 | –
8 | O=C(NCC1CC2CCC1C2)c1cccnc1SCCCc1ccc(F)cc1 (centres unmarked) [compound 51] | 198 | – | – | Low-intensity tail flick rat p.o. % effect (dose [mg/kg]) (Sprague-Dawley rats; dose 21.5 mg/kg, MPE): 49 (21.5) %; Fluorimetry % efficacy (retigabine 50 μM = 100%) (KCNQ2/3 channels): 192%
9 | O=C(NCc1ccc(F)cc1)c1cccnc1SCCC(F)(F)c1ccc(F)cc1 [compound 124, 2-[[3,3-Difluoro-3-(4-fluorophenyl)-propyl]sulfanyl]-N-[(4-fluorophenyl)-methyl]-pyridine-3-carboxylic acid amide] | 17 | 114 | – | ED50 (Sprague-Dawley rats): 3.5 mg/kg
10 | O=C(NCC1CC2CCC1C2)c1cccnc1SCCCc1cc(F)c(F)c(F)c1 (centres unmarked) [compound 68, N-(5-Bicyclo[2.2.1]heptanyl-methyl)-2-[3-(3,4,5-trifluoro-phenyl)-propylsulfanyl]-pyridine-3-carboxylic acid amide] | 65 | 280 | 32 | –
11 | O=C(NCC1CC2CCC1C2)c1cccnc1SCCCc1ccc(F)c(C(F)(F)F)c1 (centres unmarked) [compound 54, N-(5-Bicyclo[2.2.1]heptanyl-methyl)-2-[3-[4-fluoro-3-(trifluoromethyl)-phenyl]-propylsulfanyl]-pyridine-3-carboxylic acid amide] | 133 | 240 | 20 | –
12 | O=C(NCC1CCCCO1)c1cccnc1SCCCc1ccc(F)cc1 (centres unmarked) [compound 134, 2-[3-(4-Fluorophenyl)-propylsulfanyl]-N-(tetrahydro-pyran-2-yl-methyl)-pyridine-3-carboxylic acid amide] | 268 | 224 | – | inhibition in vivo at 21.5 mg/kg (Sprague-Dawley rats; dose 21.5 mg/kg, MPE): 40%
13 | O=C(NCc1nnco1)c1cccnc1SCCCc1ccc(F)cc1 [compound 158, 2-[3-(4-Fluorophenyl)-propylsulfanyl]-N-([1,3,4]oxadiazol-2-yl-methyl)-pyridine-3-carboxylic acid amide] | – | 30 | – | –
14 | O=C(NCc1cccs1)c1cccnc1CCCCc1ccccc1 [compound 7, 2-(4-Phenyl-butyl)-N-(thiophen-2-yl-methyl)-pyridine-3-carboxylic acid amide] | – | 91 | – | –

Further lines, with some results ahead:

Row | EC50 (KCNQ2/3 channels) [nM] | Emax (KCNQ2/3 channels) [%] | Structure (SMILES) | inhibition in vivo at 10 mg/kg (Sprague-Dawley rats; MPE) [%] | other results
15 | 19 | – | CC(C)CCNC(=O)c1cccnc1SCCC(F)(F)c1ccc(F)cc1 [compound 169] | – | Low-intensity tail flick rat p.o. ED50 (Sprague-Dawley rats): ED50 2.7 mg/kg; Fluorimetry % efficacy (retigabine 50 μM = 100%) (KCNQ2/3 channels): 224%
16 | 62 | 186 | CC(C)(C)CCNC(=O)c1cccnc1SCCC(F)(F)c1ccc(F)cc1 [compound 116, 2-[[3,3-Difluoro-3-(4-fluorophenyl)-propyl]sulfanyl]-N-(3,3-dimethyl-butyl)-pyridine-3-carboxylic acid amide] | – | ED50 (Sprague-Dawley rats): 5.4 mg/kg
17 | 24 | 229 | CCCCNC(=O)c1cccnc1SCCC(F)(F)c1ccc(F)cc1 [compound 170, N-Butyl-2-[[3,3-difluoro-3-(4-fluorophenyl)-propyl]sulfanyl]-pyridine-3-carboxylic acid amide] | – | inhibition in vivo at 4.64 mg/kg (Sprague-Dawley rats; MPE): 20%
18 | 805 | 231 | O=C(NCC1CCOC1)c1cccnc1SCCC(F)(F)c1ccc(F)cc1 (centres unmarked) [compound 187, 2-[[3,3-Difluoro-3-(4-fluorophenyl)-propyl]sulfanyl]-N-(tetrahydro-furan-3-yl-methyl)-pyridine-3-carboxylic acid amide] | – | –
19 | 37 | 202 | Cc1ccc(CNC(=O)c2cccnc2SCCC(F)(F)c2ccc(F)cc2)o1 [compound 191, 2-[[3,3-Difluoro-3-(4-fluorophenyl)-propyl]sulfanyl]-N-[(5-methyl-furan-2-yl)-methyl]-pyridine-3-carboxylic acid amide] | – | –
20 | 106 | 185 | CC(C)CCNC(=O)c1cccnc1SCCCc1ccc(F)cc1 [compound 133, 2-[3-(4-Fluorophenyl)-propylsulfanyl]-N-(3-methyl-butyl)-pyridine-3-carboxylic acid amide] | 61 | –
21 | 43 | 109 | Cc1cccc(CNC(=O)c2cccnc2SCCC(F)(F)c2ccc(F)cc2)c1 [compound 183, 2-[[3,3-Difluoro-3-(4-fluorophenyl)-propyl]sulfanyl]-N-(m-tolyl-methyl)-pyridine-3-carboxylic acid amide] | – | –
